Like-named read-outs stand apart in the source and are kept apart here.
Tests used:
[1] = system: human mammary carcinoma MX-1 xenograft; assay: Antitumor therapeutic effect in nude mice bearing MX-1 xenograft; assay type: in vivo; details: for Tumor remission achieved: doses and schedules as in Table 2 (30-150 mg/kg, i.v.); for log cell kill: estimated by Eq. 4 from remission time; for Duration complete remission maintained without relapse: one cycle 5-dose-treatment, 3 out of 3 mice
Description: (§1) Athymic nude mice bearing the nu/nu gene were used for human breast tumor MX-1 xenograft (FIGS. 3 and 4) and human brain glioma U87 GM xenograft (FIG. 5). Nude mice were obtained from National Cancer Institute, Frederick, Md. Male mice 6 weeks old or older weighing 22 g or more were used for experiments with subcutaneous tumor inoculation as described previously.^62 Drug was administrated via the tail vein by iv injection. Tumor volumes were assessed by measuring length×width×height (or width) by using caliper. Vehicle used was 20 μL DMSO in 180 μL saline. All animal studies were conducted in accordance with the guidelines of the U.S. National Institutes of Health Guide for the Care and Use of Animals and the protocol approved by the Institutional Animal Care and Use Committee.
(§2) Animals. Athymic nude mice bearing the nu/nu gene were obtained from NCI, Frederick, Md. and used for all human tumor xenografts. Male nude mice 6 weeks or older weighing 20-24 g or more were used. Compounds were administered via the tail vein for i.v. injection or infusion as described previously.^59 A typical formulation for chemotherapeutic studies for each drug was dissolved in DSMO to make a 25 mg/ml fresh solution, 0.4 ml of this solution was mixed with 0.3 ml of Tween 80, plus 1.3 ml to make 2 ml of 5 mg/ml solution. Bolus injection volume was 0.1-0.2 ml per mouse. Tumor volume was assessed by measuring length×width×height (or width) by using a caliper. For tumor-bearing nude mice during the course of the experiment, the body weight refers to total weight minus the weight of the tumor. All animal studies were conducted in accordance with the guidelines for the National Institute of Health Guide for the Care and Use of Animals and the protocol approved by the Institutional Animal Care and Use Committee.
The therapeutic effects of a drug against human tumor xenografts in nude mice, under the optimal therapeutic conditions but without any lethality due to drug toxicity, the following degrees of therapeutic effects are defined and calculated by the following formula:
[formula] • where T0 is the initial tumor size (in mm^3) at beginning of drug treatment; • Tc is tumor size of untreated control group on a given date; and • Tx is tumor size of the drug treated group on a given date.
[formula] • Where T0 and Tx are as specified as above. • Tumor disappearance (complete remission or CR) is defined by the effect where [Tx=0] for a period of time (in days) for a proportion of animals (NCR/N), where N is the total number of animals in the group, and NCR is the number of mice in the group that achieved CR. • Tumor relapse is quantitatively calculated by [The Day tumor relapsed(Drelp)−The Day CR achieved(DCR)] (Eq. 3) • for a proportion of animals (Nrelp/N) where N is the total number of animals in the group, and Nrelp is the number of the mice in the group that relapsed. • The log cell kill (LCK) of the tumor tissue after a given chemotherapy that reached CR is estimated by: LCK=log [2^(Tumor remission in days/Tumor doubling time in days)] (Eq. 4)

[2] = system: CCRF-CEM human lymphoblastic leukemia cells; assay: In vitro cytotoxicity, XTT assay
CCRF-CEM/Taxol = assay: In vitro cytotoxicity, XTT assay, taxol-resistant subline; details: for IC50: Homo sapiens, CCRF-CEM, 72 h, read-out: IC50 CCRF-CEM/Taxol, XTT assay, 72-hr incubation; for fold of cross-resistant, CCRF-CEM/Taxol vs IC50 of parent cell line: number in brackets
[3] = system: Human mammary carcinoma (MX-1) tumor cells; assay: In vitro cytotoxicity, SRB assay
[4] = system: Human colon carcinoma HCT-116 cells; assay: In vitro cytotoxicity, SRB assay
[5] = system: human glioma U87 GM s.c. xenograft; assay: Therapeutic effect in nude mice bearing U87 glioma xenograft; assay type: in vivo
Description: as §1
The therapeutic effects of N-mustard compounds, BO-1049, 1051 and 1055, against human glioma U87 GM s.c. xenograft in nude mice were given in FIG. 5, A and B. U87 glioma is known to be refractory tumor that can not be effectively treated with cell-cycle specific anti-tumor drugs such as taxol, epothilones, or arabinosylcytosine. However, cell-cycle non-specific drugs such as alkylating agent, cyclophosphamide or BCNU, yields better therapeutic results. […] However, upon 6 days of recession of treatment with BO-1049 or BO-1055, the tumor began to regrow.
as §2

MX-1 cells = assay: Inhibition of biosynthesis of DNA, RNA and protein (tracer incorporation); assay type: cell-based, human; details: for degrees of inhibiting biosynthesis of DNA and RNA, maximized: [3H]thymidine / [3H]adenosine incorporation; for persistence of inhibition of biosynthesis: printed 'over 6-24 hrs'
Description: [^3H]Thymidine (1 uCi), [^3H]adenosine (1 μCi) and [^3H]leucine (2 μCi) were used as the tracers for incorporation into DNA, RNA and protein, respectively. […] Incubation was terminated at each time points as indicated. For details of the method see Chou et al. Cancer Research 43: 3074-3079, 1983. […] The half-maximal inhibition was reached within 15-30 min and persisted for over 6-24 hrs.

[6] = Homo sapiens, CCRF-CEM, 72 h, read-out: IC50 CCRF-CEM, XTT assay, 72-hr incubation
[7] = read-out: IC50 CCRF-CEM, XTT assay, 72-hr incubation
[8] = Homo sapiens, 72 h, read-out: IC50 MX-1, SRB assay, 72-hr incubation
[9] = Homo sapiens, HCT-116, 72 h, read-out: IC50 HCT-116, SRB assay, 72-hr incubation

O=C(Nc1ccc(N(CCCl)CCCl)cc1)Nc1cc(CO)cc(Nc2c3ccccc3nc3ccccc23)c1 [BO-1037, 1-[3-(Acridin-9-ylamino)-5-hydroxymethylphenyl]-3-{4-[bis(2-chloroethyl)amino]phenyl}-urea]
Tumor remission achieved [1]: CR in parts of the mice | IC50 [2, 6]: 54.5 nM

CCOC(=O)Nc1cc(COC(=O)Oc2ccc(N(CCCl)CCCl)cc2)cc(Nc2c3ccccc3nc3ccccc23)c1 [BO-1065, Carbonic acid 3-(acridin-9-ylamino)-5-ethoxycarbonylaminobenzyl ester 4-[bis(2-chloroethyl)amino]phenyl ester]
Remark (tolerability of dose) ([1]; 100 mg/kg, QD × 3, i.v.): Too high dose

O=C(Nc1cc(CO)cc(Nc2c3ccccc3nc3ccccc23)c1)Oc1ccc(N(CCCl)CCCl)cc1 [BO-1062, [3-(Acridin-9-ylamino)-5-hydroxymethylphenyl]carbamic acid 4-[bis(2-chloro-ethyl)amino]phenyl ester]
Tumor remission achieved [1]: complete tumor remission | IC50 [2, 6]: 57 nM | IC50 (CCRF-CEM/Taxol): 112 nM | fold of cross-resistant, CCRF-CEM/Taxol vs IC50 of parent cell line (CCRF-CEM/Taxol): 2.0 x

COc1cc(NC(=O)Oc2ccc(N(CCCl)CCCl)cc2)cc(Nc2c3ccccc3nc3ccccc23)c1 [BO-1066, [3-(Acridin-9-ylamino)-5-methoxyphenyl]carbamic acid 4-[bis(2-chloroethyl)-amino]phenyl ester]
Tumor remission achieved [1]: complete tumor remission | fold of cross-resistant, CCRF-CEM/Taxol vs IC50 of parent cell line (CCRF-CEM/Taxol): 1.5 x

CCOC(=O)Nc1cc(COC(=O)Nc2ccc(N(CCCl)CCCl)cc2)cc(Nc2c3ccccc3nc3ccccc23)c1 [BO-1054, (3-(Acridin-9-ylamino)-5-{4-[bis(2-chloroethyl)amino]phenylcarbamoyloxymethyl}-phenyl)carbamic acid ethyl ester]
IC50 ([3]; read-out: IC50 MX-1, SRB assay, 72-hr incubation): 605 nM | IC50 ([4]; read-out: IC50 HCT-116, SRB assay, 72-hr incubation): 757 nM | IC50 [2, 7]: 84 nM

Cc1cccc2c(Nc3cc(CO)cc(NC(=O)Nc4ccc(N(CCCl)CCCl)cc4)c3)c3ccccc3nc12 [BO-1050, 1-{4-[bis(2-chloroethyl)amino]phenyl}-3-[3-hydroxymethyl-5-(4-methylacridin-9-ylamino)phenyl]urea]
Tumor remission achieved [1]: CR in parts of the mice | log cell kill [1]: > 4.1 | Duration complete remission maintained without relapse [1]: over 70 days | IC50 [3, 8]: 128 nM | IC50 [2, 6]: 30 nM | fold of cross-resistant, CCRF-CEM/Taxol vs IC50 of parent cell line (CCRF-CEM/Taxol): 12.8 x

CC[C@]1(O)C[C@@H]2CN(CCc3c([nH]c4ccccc34)[C@@](C(=O)OC)(c3cc4c(cc3OC)N(C)[C@H]3[C@@](O)(C(=O)OC)[C@H](OC(C)=O)[C@]5(CC)C=CCN6CC[C@]43[C@@H]65)C2)C1 [Vinblastine, reference compound]
IC50 [3, 8]: 2.9 ± 0.5 nM | IC50 [4, 9]: 1.8 ± 0.4 nM | IC50 [2, 6]: 0.73 ± 0.09 nM | fold of cross-resistant, CCRF-CEM/Taxol vs IC50 of parent cell line (CCRF-CEM/Taxol): 106.2 x

O=C(Nc1ccc(N(CCCl)CCCl)cc1)Nc1c2ccccc2nc2ccccc12 [BO-1034, 1-Acridin-9-yl-3{4-[bis(2-chloroethyl)amino]phenyl}urea]
IC50 [2, 6]: 198 nM | IC50 (CCRF-CEM/Taxol): 418 nM | fold of cross-resistant, CCRF-CEM/Taxol vs IC50 of parent cell line (CCRF-CEM/Taxol): 2.1 x

Cc1cccc2c(Nc3cc(CO)cc(NC(=O)Oc4ccc(N(CCCl)CCCl)cc4)c3)c3ccccc3nc12 [BO-1063, [3-Hydroxymethyl-5-(4-methylacridin-9-ylamino)phenyl]carbamic acid 4-[bis(2-chloroethyl)amino]phenyl ester]
Remark (tolerability of dose) ([1]; 100 mg/kg, QD × 3, i.v.): Too high dose | IC50 [2, 6]: 75 nM | IC50 (CCRF-CEM/Taxol): 81 nM | fold of cross-resistant, CCRF-CEM/Taxol vs IC50 of parent cell line (CCRF-CEM/Taxol): 1.1 x

CC(=O)O[C@H]1C(=O)[C@@]2(C)[C@H]([C@H](OC(=O)c3ccccc3)[C@]3(O)C[C@H](OC(=O)[C@H](O)[C@@H](NC(=O)c4ccccc4)c4ccccc4)C(C)=C1C3(C)C)[C@]1(OC(C)=O)CO[C@@H]1C[C@@H]2O [Taxol, reference compound]
IC50 [3, 8]: 35 ± 14 nM | IC50 [4, 9]: 1.3 ± 0.2 nM | IC50 [2, 6]: 1.3 ± 0.1 nM | fold of cross-resistant, CCRF-CEM/Taxol vs IC50 of parent cell line (CCRF-CEM/Taxol): 330 x

Cc1ccc(Nc2c3ccccc3nc3c(C)cccc23)cc1NC(=O)Nc1ccc(N(CCCl)CCCl)cc1 [BO-1051]
Tumor remission achieved [1]: complete tumor remission | log cell kill [1]: > 4.1 | Duration complete remission maintained without relapse [1]: over 70 days | IC50 [3, 8]: 174 nM | tumor-growth suppression ([5]; 100 mg/kg, Q2D×5, i.v.-injection, n=3): complete tumor-growth suppression | tumor size as % of original tumor size ([5]; 100 mg/kg, Q2D×5, n=3, one cycle, observed 10 and 12 days after last dose on Day 16): 18% | therapeutic effect compared with cyclophosphamide ([5]; BO-1049 150, BO-1051 100, BO-1055 30 mg/kg vs cyclophosphamide 80 mg/kg, all Q2D×5, parallel study): superior therapeutic effects than cyclophosphamide | IC50 [2, 6]: 74 nM | delay in reaching maximal effect on DNA and RNA biosynthesis (MX-1 cells; 10 μM): about 1 hr | time to half-maximal inhibition of biosynthesis (MX-1 cells; 10 μM): 15 to 30 min | degrees of inhibiting biosynthesis of DNA and RNA, maximized (MX-1 cells; 10 μM): 50-80% | persistence of inhibition of biosynthesis (MX-1 cells; 10 μM): 6 to 24 h | inhibition at 10 µM (MX-1 cells; Homo sapiens, MX1, 0.5 h, after initial activation within the first 30 min, read-out: protein synthesis: moderate inhibition following initial activation): ~20%

Cc1ccc(NC(=O)Nc2ccc(N(CCCl)CCCl)cc2)cc1Nc1c2cccc(C)c2nc2c(C(=O)NCCN(C)C)cccc12 [BO-1053, 9-[5-(3-{4-[Bis(2-chloroethyl)amino]phenyl}ureido)-2-methylphenylamino]-5-methylacridine-4-carboxylic acid (2-dimethylaminoethyl)amide]
Remark (tolerability of dose) ([1]; 70 mg/kg, Q2D × 5, i.v.): Too high dose | Tumor remission achieved [1]: complete tumor remission | IC50 [2, 7]: 12 nM | fold of cross-resistant, CCRF-CEM/Taxol vs IC50 of parent cell line (CCRF-CEM/Taxol): 15.3 x

Cc1ccc(Nc2c3ccccc3nc3c(C)cccc23)cc1NC(=O)Oc1ccc(N(CCCl)CCCl)cc1 [BO-1064, [2-Methyl-5-(4-methylacridin-9-ylamino)phenyl]carbamic acid 4-[bis(2-chloro-ethyl)amino]phenyl ester]
Tumor remission achieved [1]: complete tumor remission | IC50 [2, 6]: 116 nM | fold of cross-resistant, CCRF-CEM/Taxol vs IC50 of parent cell line (CCRF-CEM/Taxol): 1.4 x

Cc1cc(NC(=O)Nc2ccc(N(CCCl)CCCl)cc2)c2ccccc2n1 [BO-1038, 1-{4-[Bis(2-chloroethyl)amino]phenyl}-3-(2-methyl-quinolin-4-yl)urea]
Tumor remission achieved [1]: complete tumor remission | log cell kill [1]: > 4.1 | Duration complete remission maintained without relapse [1]: over 70 days | IC50 [4, 9]: 1240 nM | fold of cross-resistant, CCRF-CEM/Taxol vs IC50 of parent cell line (CCRF-CEM/Taxol): 2.2 x | time to half-maximal inhibition of biosynthesis (MX-1 cells; 10 μM): 15 to 30 min | degrees of inhibiting biosynthesis of DNA and RNA, maximized (MX-1 cells; 10 μM): 50-80% | persistence of inhibition of biosynthesis (MX-1 cells; 10 μM): 6 to 24 h

— US8222297B2, “Aniline or phenol mustards linked to DNA-affinic molecules or water-soluble aromatic rings and their use as cancer therapeutic agents” (Academia Sinica, priority 2007, dated 2012)
